Key:
[1] = test system: HeLa cells; assay: Live/Dead cell assay; conditions: 24 hours, chlorambucil 90 μg/ml
Procedure: Cells with formulated drug were collected at 24 hours after incubation, placed into sterile plastic tubes and centrifuged. The supernatants were aspirated out and the cell pellets were washed gently with copious amount of PBS and centrifuged to remove any excipient. The cell pellet was dislodged gently and incubated with 300 μl of Live/dead cell assay reagent and incubated for 45 minutes on a rocker with gentle shaking (20 shakes per minute). At the end of incubation the cells were spun down, washed twice with PBS, reconstituted with 1 ml of PBS and transferred into a plate to capture the images of Live/Dead cells using fluorescent microscope.
The Live/Dead cell assay was performed on HeLa cell cultures grown on collagen coated plated and treated with various forms of porous silicon (AN^+/SE, loaded/unloaded, pre-formulated/formulated).
The procedure was performed on adherent cells after the floating cells were washed off. […] Therefore, percentage of live and dead cells was calculated from the adherent cells stuck to the bottom of the wells. Each sample was run in triplicate wells and one microscopic field image from each well was captured and the live and dead cells were counted to get an average % of cytotoxicity.

[2] = Animal mortality and survival after intra-tumoural injection in tumour-bearing nude mice; assay type: in vivo; conditions: for animal mortality rate: intratumoural
Procedure: The following protocol was adopted: • 1. Culture of human cells and implantation of the tumour cells as solid tumours in nude mice: The carcinoma cell-line was cultured in RPMI and Ham's F-12 media respectively with 10% fetal calf serum in a CO2 incubator and subcultured every two to three days until growing to a number enough for implantation in animals. The cells were then implanted as solid tumors in nude mice]. The cells were collected in HBSS (Hanks balanced salt solution). One hundred microliters of cell suspension in HBSS (5×10^6 cells) was injected subcutaneously into right gluteal region of nude mice (female, 6 to 9 week old nude mice with average body weight of 25 g, housed in pathogen-free conditions) using a 25-gauge needle. • 2. Animals groups: Animals were randomly grouped into control 1 (injected with peanut oil), control 2 (injected with porous silicon without drug), free chlorambucil (drug injected without porous silicon directly into tumour or injected via intraperitoneal route) and chlorambucil impregnated porous silicon groups. Each group included 16 to 20 animals. • 3. Injection of chlorambucil impregnated porous silicon in transplanted tumours: On day 14 after implantation of tumours (diameter of the tumour about lcm), the chlorambucil impregnated formulation was applied to the centre of the tumours. • 4. Tumour volumetrics: The sizes of implanted tumours in nude mice was estimated every 3 days. The largest and smallest diameters were measured by a vernier caliper and tumour volumes estimated according the formula: V=½ ab^2, where a and b are largest and smallest tumour diameters respectively, and V is the tumour volume in cm^3.
The effects of intra-tumoural administered chlorambucil loaded porous silicon on the growth of the tumour was studied and compared with control and systemic therapy groups. The body weight of the animals was estimated by subtracting the tumour volume (cm3) from the total body weight (g) every 3 days. The survival time of each experimental animal was recorded. […]

O=C(O)CCCc1ccc(N(CCCl)CCCl)cc1 [chlorambucil, 4-[bis(2-chloroethyl)amino}benzenebutanoic acid]
dead cell percentage (cytotoxicity) [1]: ≥ 95%
animal mortality rate ([2]; 720 ug): 50%
animal mortality rate ([2]; 1500 ug (2×LD50)): 90%
LD50 ([2]; nude mice, free drug): 720 µg
